The record followed here is patent publication US20060270591A1, “Androgen receptor coregulators” (priority 2002, published 2006).

Assay [1] has as its system AR. Briefly: AR reporter gene assay with gelsolin (Example 5). The format is cell-based, human. The settings on record: 100 nM HF; normal 10% FCS medium; no gelsolin. An excerpt: 468. A C-terminal fragment of gelsolin (aa 281-731) was isolated from pACT2 encoding gelsolin, and inserted into pSG5-Gal4 DNA-binding domain (DBD) (constructed by Dr. R. Nakao). AR fragment (aa 36-918) was inserted into pCMX-VP16 (a gift from Dr. D. Chen). For gelsolin expression vector, a full-length cDNA fragment of gelsolin from LKCG, a gift from Dr. D. Kwiatkowski (Northwestern University, Evanston, Ill.), was inserted into pSG5. Dr. M. L. Lu (Harvard Medical School, Boston, Mass.) provided the p (ARE) 4-luciferase (LUC) plasmid. Dr. A. Mizokami (University of Kanazawa, Kanazawa, Japan) provided the pGL3-PSA6.0LUC plasmid. The expression plasmids of AR peptides were constructed by inserting the PCR amplified cDNA fragment of AR DBD into pFlag-CMV (Sigma) and the fragments of AR LBD into pCDNA-flag plasmid. Transfection protocol and reporter gene assay were described in previous report (Ting et al. Proc Natl Acad Sci USA 99, 661-666 (2002)).
On the technique in general: In a reporter assay the amount or activity of a reporter protein is the signal.

The target of a further assay is mtARt877s and gelsolin (Homo sapiens, UniProt P10275, T878S). Particulars: 10 μM HF, 100 nM DHT, 1 μM E2, 1 μM P; compared to EtOH. From the text: Y190 yeast cells were transformed with pAS2-mtARt877s (aa 595-918) and pATC2-gelsolin (aa 281-731).
The next assay deals with wtAR and gelsolin (Homo sapiens, UniProt P10275). The settings on record: COS-7 cells; T 10 nM; HF 1 μM.
For a further assay, the target named is T1, GR (Homo sapiens, UniProt P04150).
T1 sequence (P04150 1-777): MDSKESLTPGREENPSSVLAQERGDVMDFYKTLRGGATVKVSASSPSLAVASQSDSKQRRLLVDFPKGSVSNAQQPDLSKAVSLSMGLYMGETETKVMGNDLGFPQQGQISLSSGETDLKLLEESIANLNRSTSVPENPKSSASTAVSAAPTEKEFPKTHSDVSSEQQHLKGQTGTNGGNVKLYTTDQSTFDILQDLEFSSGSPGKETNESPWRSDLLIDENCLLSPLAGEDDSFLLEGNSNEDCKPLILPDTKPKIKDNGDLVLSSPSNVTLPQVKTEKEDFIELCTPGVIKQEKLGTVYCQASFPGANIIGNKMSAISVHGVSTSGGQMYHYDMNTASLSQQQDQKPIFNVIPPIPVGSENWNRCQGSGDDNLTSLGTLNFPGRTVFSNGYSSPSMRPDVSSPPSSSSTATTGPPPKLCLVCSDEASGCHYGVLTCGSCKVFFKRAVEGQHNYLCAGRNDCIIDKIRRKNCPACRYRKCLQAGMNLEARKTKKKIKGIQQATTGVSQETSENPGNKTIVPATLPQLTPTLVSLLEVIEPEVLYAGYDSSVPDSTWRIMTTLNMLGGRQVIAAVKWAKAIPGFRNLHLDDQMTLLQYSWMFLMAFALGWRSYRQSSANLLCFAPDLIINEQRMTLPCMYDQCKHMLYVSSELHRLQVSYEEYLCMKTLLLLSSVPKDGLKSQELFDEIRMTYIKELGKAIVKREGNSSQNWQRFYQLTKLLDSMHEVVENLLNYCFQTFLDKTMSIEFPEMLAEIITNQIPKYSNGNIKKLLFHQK
Briefly: GR transactivation luciferase assay with ARA267. Also noted: expressed in transfected cells; host or cells: DU145, PC-3, HepG2. The settings on record: HepG2 cells. It is filed as cell-based. How it is done: (§1) 31. […] The luciferase activity of each receptor without ARA267 and ligands was set as one fold. All values represent the mean SD of three independent experiments.
(§2) 444. Human prostate cancer cell line PC-3 and DU145, lung cancer cell line H1299, and hepatoma cell line HepG2 were grown in DMEM-10% FCS. For transfection the cells were plated in 60-mm dishes and experiments performed by modified calcium phosphate technique as previously described (Yeh et al. Proc. Natl. Acad. Sci. U.S.A. (1996) 93, 5517-5521). After incubation for 24 h, the cells were treated with steroid hormones for another 24 h, then harvested for the chloramphenicol acetyltransferase (CAT) assay. Mouse mammary tumor virus-(MMTV)-CAT reporter gene was used to measure AR transcription activity, and a β-Galactosidase expression gene (pCMV-O-gal) was incorporated into the experiments as an internal control (Yeh et al. Proc. Natl. Acad. Sci. U.S.A. (1996) 93, 5517-5521). CAT activity was visualized by a PhosphorImager (Molecular Dynamics) and quantitated by IMAGEQUANT software (molecular Dynamics). For Luciferase (LUC) assay, pG5-LUC, pMMTV-LUC or estrogen response element (ERE)-LUC plasmid was used as the reporter gene and SV40-PRL (promega) was used as an internal control. Dual-luciferase Reporter 1000 Assay System (promega) was employed to measure the luciferase activity.

The next assay concerns PSA. Briefly: Western blot of PSA in LNCaP cells transfected with ARA267. The settings on record: 10 nM DHT. It is filed as cell-based, human. How it is done:
447. LNCaP cells were transfected with pSG5ARA267 and pSG5 vector by Superfect (Qiagen) respectively. […] The cells were harvested and lysed following the protocol from Santa Cruz Biotechnology. In each sample, 50 μg whole-cell lysis proteins were separated on 10% SDS-polyacrylamide gel. After transfering, the membrane was blotted with polyclonal AR antibody (NH27), PSA antibody (Dako Corporation), and β-actin antibody (Santa Cruz Biotechnology). The bands were developed with an alkaline phosphatase detection kit (Bio-Rad).
In general terms: Immunoblotting shows a protein as a band on a membrane.

A further assay concerns the target T2, ER (Homo sapiens, UniProt P03372).
T2 sequence (P03372 1-595): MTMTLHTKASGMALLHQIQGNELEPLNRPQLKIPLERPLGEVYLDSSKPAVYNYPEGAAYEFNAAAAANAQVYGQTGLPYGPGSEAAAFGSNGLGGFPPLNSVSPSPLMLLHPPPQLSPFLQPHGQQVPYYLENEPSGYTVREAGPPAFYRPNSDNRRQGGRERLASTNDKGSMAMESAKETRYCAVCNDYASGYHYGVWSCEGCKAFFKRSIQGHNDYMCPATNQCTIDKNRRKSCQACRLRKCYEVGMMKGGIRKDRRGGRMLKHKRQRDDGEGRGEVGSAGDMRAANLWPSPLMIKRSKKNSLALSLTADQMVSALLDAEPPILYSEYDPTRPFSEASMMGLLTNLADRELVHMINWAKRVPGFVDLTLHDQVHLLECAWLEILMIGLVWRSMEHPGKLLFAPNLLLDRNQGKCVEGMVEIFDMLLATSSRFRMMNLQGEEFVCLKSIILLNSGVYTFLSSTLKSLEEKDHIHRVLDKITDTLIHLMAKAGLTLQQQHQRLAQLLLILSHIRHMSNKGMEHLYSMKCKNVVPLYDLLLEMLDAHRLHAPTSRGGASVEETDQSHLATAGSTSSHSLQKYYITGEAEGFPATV
Briefly: ER transactivation luciferase assay with ARA267. The format is cell-based. Also noted: expressed in transfected cells; host or cells: DU145, HepG2, PC3. Particulars: HepG2 cells. How it is done:
as §1, §2

The subject of assay [2] is AR. Briefly: AR transactivation reporter assay (CAT/LUC) with ARA267 (Example 4). It is filed as cell-based, human. How it is done:
as §2

As to `CC(C)(O)C(=O)Nc1ccc([N+](=O)[O-])c(C(F)(F)F)c1` [HF, hydroxyflutamide], in the assay with AR [1], the “inhibition of AR transactivation” value worked out at 80%. Also, on mtARt877s and gelsolin, the “interaction between mtARt877s and gelsolin (β-gal activity)” value was “promoted significant interaction”. In addition, the “interaction between wtAR and gelsolin” value on wtAR and gelsolin is reported as “induced significant interaction”.
Regarding “ARA267: AR coregulator of 2427 amino acids containing a SET domain, calculated molecular weight 267 kD”, the “effect on the transactivation of GR” value with GR is “marginal effect”. The “effect on DHT-induced PSA protein expression” value in the assay on PSA was “enhance DHT-induced PSA protein expression”. For the same molecule, the “effect on the transactivation of ER” value with ER is on record as “marginal effect”. Moreover, the “effect on AR transactivation” value in the assay on AR [2] (10 nM E2) is reported as “marginal effects”. For the same molecule, the “effect on DHT-mediated AR transactivation” value in the assay on AR [2] (PC-3 cells, MMTV-CAT) is listed as “enhance DHT-mediated AR transactivation in a dose-dependent manner”.
